Where a name gives a salt, the structure may show the parent alone.

As usually defined, the IC50 is the concentration that inhibits the measured activity by half.

This test has as its target T1, full length SGK1 (Homo sapiens, UniProt O00141).
T1 construct: 125 μM full length SGK1 (Life Technologies Part #PR7358A); purchased Life Technologies PR7358A
T1 sequence (O00141 1-431): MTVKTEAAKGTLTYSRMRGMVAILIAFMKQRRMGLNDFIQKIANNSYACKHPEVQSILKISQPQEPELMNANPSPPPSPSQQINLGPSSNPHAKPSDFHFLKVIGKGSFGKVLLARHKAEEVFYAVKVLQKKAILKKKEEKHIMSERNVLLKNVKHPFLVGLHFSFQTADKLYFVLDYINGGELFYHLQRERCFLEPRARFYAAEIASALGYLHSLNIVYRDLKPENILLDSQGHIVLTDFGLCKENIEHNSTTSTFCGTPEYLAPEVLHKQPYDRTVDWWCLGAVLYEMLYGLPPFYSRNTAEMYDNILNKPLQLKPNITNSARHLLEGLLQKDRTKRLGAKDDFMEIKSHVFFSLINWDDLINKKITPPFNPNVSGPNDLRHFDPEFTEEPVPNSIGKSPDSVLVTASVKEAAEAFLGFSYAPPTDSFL
Put plainly: SGK1 inhibition Assay A (Caliper LabChip electrophoretic separation of fluorescent peptide substrate and phosphorylated product). To be noted: Assay A; 20 μM ATP, 40 min incubation; read-out: SGK1 IC50. In kind it is biochemical.
Consider `Nc1ncnn2c(-c3ccnc(C(F)F)c3)cc(N3CCC[C@@H](NC(=O)c4cccs4)C3)c12` [Example 484, (R)-N-(1-(4-amino-7-(2-(difluoromethyl)pyridin-4-yl)pyrrolo[2,1-f][1,2,4]triazin-5-yl)piperidin-3-yl)thiophene-2-carboxamide], for which the IC50 amounted to 4 nM.

With `Nc1ncnn2c(-c3ccnc(F)c3)cc(N3CCC[C@@H](NC(=O)Cc4ccc(Cl)s4)C3)c12` [Example 151, (R)-N-(1-(4-amino-7-(2-fluoropyridin-4-yl)pyrrolo[2,1-f][1,2,4]triazin-5-yl)piperidin-3-yl)-2-(5-chlorothiophen-2-yl)acetamide], the IC50 stood at 285 nM.

Consider `CS(=O)(=O)c1ccc(-c2cc(N3CCC[C@@H](NC(=O)C4CCCCC4)C3)c3c(N)ncnn23)cc1` [Example 16, (R)-N-(1-(4-amino-7-(4-(methylsulfonyl)phenyl)pyrrolo[2,1-f][1,2,4]triazin-5-yl)piperidin-3-yl) cyclohexanecarboxamide], for which the IC50 came to 324 nM.

As for `CC(=O)N1CC=C(c2cc(N3CCC[C@@H](NC(=O)c4cc(C)on4)C3)c3c(N)ncnn23)C1` [Example 455, (R)-N-(1-(7-(1-acetyl-2,5-dihydro-1H-pyrrol-3-yl)-4-aminopyrrolo[2,1-f][1,2,4]triazin-5-yl)piperidin-3-yl)-5-methylisoxazole-3-], the half-maximal inhibitory concentration (IC50) was found to be 246 nM.

On to `CN1CCC(Oc2cc(C(F)F)sc2C(=O)N[C@@H]2CCCN(c3cc(-c4ccc(C#N)c(F)c4)n4ncnc(N)c34)C2)CC1` [Example 440, (R)-N-(1-(4-amino-7-(4-cyano-3-fluorophenyl)pyrrolo[2,1-f][1,2,4]triazin-5-yl)piperidin-3-yl)-5-(difluoromethyl)-3-((1-methylpiperidin-4-yl)oxy)thiophenc-2-carboxamide], for which the IC50 came to 3 nM.

Regarding `CC(=O)N1CC=C(c2cc(N3CCC[C@@H](NC(=O)c4sc(Cl)cc4OCCN4CCC(C)(O)CC4)C3)c3c(N)ncnn23)C1` [Example 299, (R)-N-(1-(7-(1-acetyl-2,5-dihydro-1H-pyrrol-3-yl)-4-aminopyrrolo[2,1-f][1,2,4]triazin-5-yl)piperidin-3-yl)-5-chloro-3-(2-(4-hydroxy-4-methylpiperidin-1-yl)ethoxy)thiophene-2-carboxamide], the IC50 stood at 7 nM.

For the compound `Nc1ncnn2c(C3=CCN(C(=O)[C@H]4C[C@@H]4F)C3)cc(N3CCC[C@@H](NC(=O)c4sc(Cl)cc4OCCN4CCOCC4)C3)c12` (relative stereo) [Example 262, rel-N-((R)-1-(4-amino-7-(1-((1R,2S)-2-fluorocyclopropane-1-carbonyl)-2,5-dihydro-1H-pyrrol-3-yl)pyrrolo[2,1-f][1,2,4]triazin-5-yl)piperidin-3-yl)-5-chloro-3-(2-morpholinoethoxy)thiophene-2-carboxamide], the IC50 came out at 18 nM.

Consider `Nc1ncnn2c(-c3ccc(OCC(F)F)nc3)cc(N3CCC[C@@H](NC(=O)c4ccc(Cl)s4)C3)c12` [Example 534, (R)-N-(1-(4-amino-7-(6-(2,2-difluoroethoxy)pyridin-3-yl)pyrrolo[2,1-f][1,2,4]triazin-5-yl)piperidin-3-yl)-5-chlorothiophene-2-carboxamide], for which the concentration for half-maximal inhibition (IC50) is 8 nM.

`CS(=O)(=O)c1ccc(-c2cc(N3CCC[C@@H](NC(=O)c4ccnc(F)c4)C3)c3c(N)ncnn23)cc1` [Example 32, (R)-N-(1-(4-amino-7-(4-(methylsulfonyl)phenyl)pyrrolo[2,1-f][1,2,4]triazin-5-yl)piperidin-3-yl)-2-fluoroisonicotinamide, TFA]: the half-inhibitory concentration (IC50) amounted to 11 nM.

On to `CS(=O)(=O)c1ccc(-c2cc(N3CCC[C@@H](NC(=O)c4cnn(CC(F)(F)F)c4)C3)c3c(N)ncnn23)cc1` [Example 76, (R)-N-(1-(4-amino-7-(4-(methylsulfonyl)phenyl)pyrrolo[2,1-f][1,2,4]triazin-5-yl)piperidin-3-yl)-1-(2,2,2-trifluoroethyl)-1H-pyrazole-4-carboxamide], for which the IC50 was determined as 53 nM.

As for `Nc1ncnn2c(-c3ccc(C(F)F)nc3)cc(N3CCC[C@@H](NC(=O)c4ccc(Cl)s4)C3)c12` [Example 248, (R)-N-(1-(4-amino-7-(6-(difluoromethyl)pyridin-3-yl)pyrrolo[2,1-f][1,2,4]triazin-5-yl)piperidin-3-yl)-5-chlorothiophene-2-carboxamide, TFA], the IC50 was 3 nM.

As to `CC(=O)N1CC=C(c2cc(N3CCC[C@@H](NC(=O)c4ccc(-c5ccnc(C(F)F)c5)s4)C3)c3c(N)ncnn23)C1` [Example 541, (R)—N-(1-(7-(1-acetyl-2,5-dihydro-1H-pyrrol-3-yl)-4-aminopyrrolo[2,1-f][1,2,4]triazin-5-yl)piperidin-3-yl)-5-(2-(difluoromethyl)pyridin-4-yl)thiophene-2-carboxamide], the IC50 was found to be 5 nM.

For the compound `CS(=O)(=O)c1ccc(-c2cc(N3CCC[C@@H](NC(=O)c4ccccc4Cl)C3)c3c(N)ncnn23)cc1` [Example 19, (R)-N-(1-(4-amino-7-(4-(methylsulfonyl)phenyl)pyrrolo[2,1-f][1,2,4]triazin-5-yl)piperidin-3-yl)-2-chlorobenzamide], the 50% inhibitory concentration (IC50) is 274 nM.

In the case of `COc1ccc(OC)c(C(=O)N[C@@H]2CCCN(c3cc(-c4ccc(S(C)(=O)=O)cc4)n4ncnc(N)c34)C2)c1` [Example 56, (R)-N-(1-(4-amino-7-(4-(methylsulfonyl)phenyl)pyrrolo[2,1-f][1,2,4]triazin-5-yl)piperidin-3-yl)-2,5-dimethoxybenzamide, TFA], the half-inhibitory concentration (IC50) was determined as 486 nM.

On to `COC(=O)N1CC=C(c2cc(N3CCC[C@@H](NC(=O)c4sc(C(F)F)cc4N4CCOCC4)C3)c3c(N)ncnn23)C1` [Example 321, Methyl (R)-3-(4-amino-5-(3-(5-(difluoromethyl)-3-morpholinothiophene-2-carboxamido)piperidin-1-yl)pyrrolo[2,1-f][1,2,4]triazin-7-yl)-2,5-dihydro-1H-pyrrole-1-carboxylate], for which the IC50 was found to be 13 nM.

As to `CN(C)CCOc1cc(Cl)sc1C(=O)N[C@@H]1CCCN(c2cc(C3=CCNC3)n3ncnc(N)c23)C1` [Example 171, (R)—N-(1-(4-amino-7-(2,5-dihydro-1H-pyrrol-3-yl)pyrrolo[2,1-f][1,2,4]triazin-5-yl)piperidin-3-yl)-5-chloro-3-(2-(dimethylamino)ethoxy)thiophene-2-carboxamide, 3 TFA], the IC50 is 16 nM.

Regarding `CS(=O)(=O)c1ccc(-c2cc(N3CCC[C@@H](NC(=O)c4ccn5ccnc5c4)C3)c3c(N)ncnn23)cc1` [Example 54], the IC50 amounted to 596 nM.

Take `CC(=O)N1CC=C(c2cc(N3CCC[C@@H](NC(=O)c4cnccn4)C3)c3c(N)ncnn23)C1` [Example 446, (R)-N-(1-(7-(1-acetyl-2,5-dihydro-1H-pyrrol-3-yl)-4-aminopyrrolo[2,1-][1,2,4]triazin-5-yl)piperidin-3-yl)pyrazine-2-carboxamide]: the IC50 turned out to be 126 nM.

With `CC(=O)NCCOc1cc(C(F)F)sc1C(=O)N[C@@H]1CCCN(c2cc(-c3ccc(=O)n(CC(F)F)c3)n3ncnc(N)c23)C1` [Example 427, (R)-3-(2-acetamidoethoxy)-N-(1-(4-amino-7-(1-(2,2-difluoroethyl)-6-oxo-1,6-dihydropyridin-3-yl)pyrrolo[2,1-f][1,2,4]triazin-5-yl)piperidin-3-yl)-5-(difluoromethyl)thiophene-2-carboxamide], the 50% inhibitory concentration (IC50) came to 12 nM.

Regarding `COC(=O)N1CC=C(c2cc(N3CCC[C@@H](NC(=O)c4sc(Cl)cc4OCC4CNC4)C3)c3c(N)ncnn23)C1` [Example 634, Methyl (R)-3-(4-amino-5-(3-(3-(azetidin-3~ylmethoxy)-5-chlorothiophene-2-carboxamido)piperidin-1-y1)pyrrolo[2,1-f][1,2,4]triazin-7-y1)-2,5-dihydro-\H-pyrrole-1-carboxylate], the IC50 was 18 nM.

With `N#Cc1ccc(-c2cc(N3CCC[C@@H](NC(=O)c4ccc(Cl)s4)C3)c3c(N)ncnn23)cc1F` [Example 243, (R)-N-(1-(4-amino-7-(4-cyano-3-fluorophenyl)pyrrolo[2,1-f][1,2,4]triazin-5-yl)piperidin-3-yl)-5-chlorothiophene-2-carboxamide, TFA], the IC50 worked out at 1 nM.

For the compound `Cc1nc(C)c(C(=O)N[C@@H]2CCCN(c3cc(-c4ccnc(C#N)c4)n4ncnc(N)c34)C2)s1` [Example 513, (R)-N-(1-(4-amino-7-(2-cyanopyridin-4-yl)pyrrolo[2,1-f][1,2,4]triazin-5-yl)piperidin-3-yl)-2.4-dimethylthiazole-5-carboxamide], the IC50 came to 32 nM.

As to `CN1[C@@H]2CC[C@H]1C[C@H](Oc1cc(Cl)sc1C(=O)N[C@@H]1CCCN(c3cc(-c4cncnc4)n4ncnc(N)c34)C1)C2` [Example 614, N—((R)-1-(4-amino-7-(pyrimidin-5-yl)pyrrolo[2,1-f][1,2,4]triazin-5-yl)piperidin-3-yl)-5-chloro-3-((8-methyl-8-azabicyclo[3.2.1]octan-3-yl)oxy)thiophene-2-carboxamide], the IC50 stood at 3 nM.

Consider `COC(=O)N1CC=C(c2cc(N3CCC[C@@H](NC(=O)c4sc(Cl)cc4OCC(=O)N4CCCC4)C3)c3c(N)ncnn23)C1` [Example 418, Methyl (R)-3-(4-amino-5-(3-(5-chloro-3-(2-oxo-2-(pyrrolidin-1-yl)ethoxy)thiophene-2-carboxamido)piperidin-1-yl)pyrrolo[2,1-f][1,2,4]triazin-7-yl)-2,5-dihydro-1H-pyrrole-1-carboxylate], for which the 50% inhibitory concentration (IC50) stood at 108 nM.

(Values after patent US20260250290A1 (BRISTOL-MYERS SQUIBB COMPANY, priority 2023, published 2026).)
